Literature values in patent US6465192B2, “Compounds and methods for the inhibition of protein-protein interactions” (priority 1997, dated 2002).

Key:
[1] = halogen substitutions of the phenyl ring, SN1

Compound | forward reaction rate with lysine side chains in proteins (physiological conditions) | non-specific covalent bonding rate constant to form stable bonds with amino acid side chains (side chains such as those of serine and lysine) | Relative reaction rate [1]
penicillin | about 1×10^−5 /M/sec | about 8×10^−6 /M/sec | –
COc1ccc([N+](=O)[O-])c(Br)c1CBr [R = Br, 2-methoxy-5-nitro-6-bromobenzyl bromide] | – | – | 0.006
COc1ccc([N+](=O)[O-])c(F)c1CBr [R = F, 2-methoxy-5-nitro-6-fluorobenzyl bromide] | – | – | 0.05
